Experimental data as given in ChEMBL document CHEMBL1136413, “Caged RNase: photoactivation of the enzyme from perfect off-state by site-specific incorporation of 2-nitrobenzyl moiety” (Bioorg Med Chem Lett, 2003).
Non-standard residues stand in square brackets, D forms with d. Residues, ends and D or L forms follow the SMILES beside them. *: point of attachment. X2 = COC(=O)C(N*)c1ccccc1[N+](=O)[O-]; X3 = O=C(OCc1ccccc1[N+](=O)[O-])*; X1 = O=[N+]([O-])c1ccccc1CO*; Nle = CCCC[C@H](N)C(=O)O

Assays:
[1] = Perfect off-state by site-specific incorporation of o-nitrobenzyl (o-NB) unit into RNase S' was determined before photolysis at 10 x E5 M/min
[2] = Perfect off-state by site-specific incorporation of o-nitrobenzyl (o-NB) unit into RNase S' was determined after photolysis at 10 x E5 M/min
[3] = Michaelis-Menten parameter(Km) value for the incorporation of photo-labile caged moiety into a proximity to the active site
[4] = Michaelis-Menten parameter(Kcat) value for the incorporation of photo-labile caged moiety into a proximity to the active site
[5] = Michaelis-Menten parameter value for the incorporation of photo-labile caged moiety into a proximity to the active site

## CCCC[C@H](NC(=O)[C@H](Cc1c[nH]cn1)NC(=O)[C@H](CCC(N)=O)NC(=O)[C@H](CCCN=C(N)N)NC(=O)[C@H](CCC(=O)O)NC(=O)[C@H](Cc1ccccc1)NC(=O)[C@H](CCCCN)NC(=O)[C@H](C)NC(=O)[C@H](C)NC(=O)[C@H](C)NC(=O)[C@@H](NC(=O)[C@H](CCC(=O)O)NC(=O)[C@@H](N)CCCCNC(=O)OCc1ccccc1[N+](=O)[O-])[C@@H](C)O)C(=O)N[C@@H](CC(=O)O)C(=O)N[C@@H](CO)C(=O)O (H-K(X3)ETAAAKFERQH[Nle]DS-OH)
[1]
  Photolysis: 1.01
[2]
  RNase S' enzyme activity: 1.04

## CCCC[C@H](NC(=O)[C@H](Cc1c[nH]cn1)NC(=O)[C@H](CCC(N)=O)NC(=O)[C@H](CCCN=C(N)N)NC(=O)[C@H](CCC(=O)O)NC(=O)[C@H](Cc1ccccc1)NC(=O)[C@H](CCCCN)NC(=O)[C@H](C)NC(=O)[C@H](C)NC(=O)[C@H](C)NC(=O)[C@@H](NC(=O)[C@H](CCC(=O)OCc1ccccc1[N+](=O)[O-])NC(=O)[C@@H](N)CCCCN)[C@@H](C)O)C(=O)N[C@@H](CC(=O)O)C(=O)N[C@@H](CO)C(=O)O (H-KE(X1)TAAAKFERQH[Nle]DS-OH)
[1]
  Photolysis: 0.96
[2]
  RNase S' enzyme activity: 0.81

## CCCC[C@H](NC(=O)[C@H](Cc1c[nH]cn1)NC(=O)[C@H](CCC(N)=O)NC(=O)[C@H](CCCN=C(N)N)NC(=O)[C@H](CCC(=O)O)NC(=O)[C@H](Cc1ccccc1)NC(=O)[C@H](CCCCNC(=O)OCc1ccccc1[N+](=O)[O-])NC(=O)[C@H](C)NC(=O)[C@H](C)NC(=O)[C@H](C)NC(=O)[C@@H](NC(=O)[C@H](CCC(=O)O)NC(=O)[C@@H](N)CCCCN)[C@@H](C)O)C(=O)N[C@@H](CC(=O)O)C(=O)N[C@@H](CO)C(=O)O (H-KETAAAK(X3)FERQH[Nle]DS-OH)
[1]
  Photolysis: 1.1
[2]
  RNase S' enzyme activity: 1.04

## CCCC[C@H](NC(=O)[C@H](Cc1c[nH]cn1)NC(=O)[C@H](CCC(N)=O)NC(=O)[C@H](CCCN=C(N)N)NC(=O)[C@H](CCC(=O)OCc1ccccc1[N+](=O)[O-])NC(=O)[C@H](Cc1ccccc1)NC(=O)[C@H](CCCCN)NC(=O)[C@H](C)NC(=O)[C@H](C)NC(=O)[C@H](C)NC(=O)[C@@H](NC(=O)[C@H](CCC(=O)O)NC(=O)[C@@H](N)CCCCN)[C@@H](C)O)C(=O)N[C@@H](CC(=O)O)C(=O)N[C@@H](CO)C(=O)O (H-KETAAAKFE(X1)RQH[Nle]DS-OH)
[1]
  Photolysis: 0.99
[2]
  RNase S' enzyme activity: 0.97

## CCCC[C@H](NC(=O)[C@H](Cc1c[nH]cn1)NC(=O)[C@H](CCC(=O)NC(C(=O)OC)c1ccccc1[N+](=O)[O-])NC(=O)[C@H](CCCN=C(N)N)NC(=O)[C@H](CCC(=O)O)NC(=O)[C@H](Cc1ccccc1)NC(=O)[C@H](CCCCN)NC(=O)[C@H](C)NC(=O)[C@H](C)NC(=O)[C@H](C)NC(=O)[C@@H](NC(=O)[C@H](CCC(=O)O)NC(=O)[C@@H](N)CCCCN)[C@@H](C)O)C(=O)N[C@@H](CC(=O)O)C(=O)N[C@@H](CO)C(=O)O (stereo partly specified) (H-KETAAAKFERE(X2)H[Nle]DS-OH)
[1]
  Photolysis: 0
[2]
  RNase S' enzyme activity: 0.37

## CCCC[C@H](NC(=O)[C@H](Cc1c[nH]cn1)NC(=O)[C@H](CCC(N)=O)NC(=O)[C@H](CCCN=C(N)N)NC(=O)[C@H](CCC(=O)O)NC(=O)[C@H](Cc1ccccc1)NC(=O)[C@H](CCCCN)NC(=O)[C@H](C)NC(=O)[C@H](C)NC(=O)[C@H](C)NC(=O)[C@@H](NC(=O)[C@H](CCC(=O)O)NC(=O)[C@@H](N)CCCCN)[C@@H](C)O)C(=O)N[C@@H](CC(=O)OCc1ccccc1[N+](=O)[O-])C(=O)N[C@@H](CO)C(=O)O (H-KETAAAKFERQH[Nle]D(X1)S-OH)
[3]
  Km: 1130 µM
[1]
  Photolysis: 0.29
[4]
  k cat: 0.054 s⁻¹
[2]
  RNase S' enzyme activity: 0.78

## CCCC[C@H](NC(=O)[C@H](Cc1c[nH]cn1)NC(=O)[C@H](CCC(N)=O)NC(=O)[C@H](CCCN=C(N)N)NC(=O)[C@H](CCC(=O)O)NC(=O)[C@H](Cc1ccccc1)NC(=O)[C@H](CCCCN)NC(=O)[C@H](C)NC(=O)[C@H](C)NC(=O)[C@H](C)NC(=O)[C@@H](NC(=O)[C@H](CCC(=O)O)NC(=O)[C@@H](N)CCCCN)[C@@H](C)O)C(=O)N[C@@H](CC(=O)O)C(=O)N[C@@H](CO)C(=O)O (H-KETAAAKFERQH[Nle]DS-OH)
[5]
  k cat: 0.0678 s⁻¹
[1]
  Photolysis: 1.02
